Measured values taken from ChEMBL document CHEMBL5214906, “Novel Antiplasmodial Compounds Leveraged with Multistage Potency against the Parasite Plasmodium falciparum: In Vitro and In Vivo Evaluations and Pharmacokinetic Studies” (J Med Chem, 2021).
Calls of active or inactive are those of the source. No cut-off for these calls is given here.

Key:
[1] = Drug recovery in C57BL/6 mouse plasma at 0.1 mg/ml; type: ADME, cell-free
Plasmodium falciparum [2] = test: Resistance index, ratio of IC50 for antiplasmodial activity against artemisinin partially resistant Plasmodium falciparum harbouring C580Y mutant to IC50 for antiplasmodial activity against Plasmodium falciparum 3D7; type: functional
[3] = Toxicity in C57BL/6 mouse assessed as effect on direct bilirubin level at 400 mg/kg, ip measured upto 24 hrs (reference value: 0.17 mg/dl); type: organism-based; details: in vivo
Plasmodium berghei [4] = test: In vivo antimalarial activity against GFP-expressing Plasmodium berghei infected in C57BL/6 mouse assessed as inhibition of parasite growth in thin blood smear at 50 mg/kg, ip administered for 4 days and measured upto 8 days post-infection by giemsa staining based microscopic analysis; type: functional, organism-based; details: time <= 8.0 day
Plasmodium berghei [5] = test: Antiplasmodial activity against firefly luciferase-expressing Plasmodium berghei liver stage infected in human Huh-7 cells assessed as inhibition of parasite growth preincubated with cells for 1 hrs followed by parasite infection and […] by bioluminescence assay; type: functional, organism-based
[6] = Toxicity in C57BL/6 mouse assessed as effect on serum LDH level at 400 mg/kg, ip measured upto 24 hrs; type: organism-based; details: in vivo
Plasmodium falciparum [7] = test: Inhibition of Plasmodium falciparum plasmepsin X […] at 1 uM using DABCYL-G-PSFVEAPVRGG-EDANS as substrate by fluorescence based assay relative to control
Erythrocyte = test: Hemolytic activity against human red blood cells upto 1600 uM incubated for 1 hrs by hemolysis assay; type: toxicity, cell-based
Plasmodium berghei [8] = test: Antimalarial activity against Plasmodium berghei assessed as reduction in Plasmodium berghei oocyte formation in Anopheles stephensi mosquito midgut fed with blood isolated from compound treated parasite-infected Balb/c mouse at 200 mg/kg administered on day 1 and day 9; type: functional, organism-based; details: time 9.0 day
[9] = Toxicity in C57BL/6 mouse assessed as effect on albumin level at 400 mg/kg, ip measured upto 24 hrs (reference value: 2.10 gm/dl); type: organism-based; details: in vivo
[10] = Therapeutic index, ratio of TC50 for cytotoxicity against human HepG2 cells to IC50 for antiplasmodial activity against Plasmodium falciparum 3D7 infected in human red blood cells; type: toxicity, cell-based; details: read-out: TI
Plasmodium berghei [11] = test: In vivo antimalarial activity against GFP-expressing Plasmodium berghei infected in C57BL/6 mouse assessed as inhibition of parasite growth in thick blood smear at 50 mg/kg, ip administered for 4 days and measured upto 8 days post-infection by microscopic analysis; type: functional, organism-based; details: time <= 8.0 day
[12] = Toxicity in C57BL/6 mouse assessed as effect on SGPT level in serum at 400 mg/kg, ip measured upto 24 hrs (reference value: 37.59 U/L); type: organism-based; details: in vivo
[13] = Toxicity in C57BL/6 mouse assessed as effect on serum creatinine level at 400 mg/kg, ip measured upto 24 hrs (reference value: 0.47 mg/dl); type: organism-based; details: in vivo
[14] = Toxicity in C57BL/6 mouse assessed as effect on alkaline phosphatase level in serum at 400 mg/kg, ip measured upto 24 hrs (reference value: 108.3 U/L); type: organism-based; details: in vivo
[15] = Toxicity in C57BL/6 mouse assessed as effect on liver structure at 400 mg/kg, ip measured upto 24 hrs by H&E staining based histopathological analysis; type: organism-based; details: in vivo
[16] = Toxicity in C57BL/6 mouse assessed as effect on serum uric acid level at 400 mg/kg, ip measured upto 24 hrs (reference value: 2.58 mg/dl); type: organism-based; details: in vivo
[17] = Cytotoxicity against human HepG2 cells assessed as reduction in cell viability incubated for 48 hrs by MTT assay; type: toxicity, cell-based; details: read-out: TC50
[18] = Toxicity in C57BL/6 mouse assessed as effect on SGOT level in serum at 400 mg/kg, ip measured upto 24 hrs (reference value: 147.2 U/L); type: organism-based; details: in vivo
[19] = Toxicity in C57BL/6 mouse assessed as effect on globulin level at 400 mg/kg, ip measured upto 24 hrs (reference value: 4.19 gm/dl); type: organism-based; details: in vivo
[20] = Toxicity in C57BL/6 mouse assessed as effect on serum calcium level at 400 mg/kg, ip measured upto 24 hrs (reference value: 8.89 mg/dl); type: organism-based; details: in vivo
Plasmodium falciparum [21] = test: Antiplasmodial activity against artemisinin partially resistant Plasmodium falciparum harbouring C580Y mutant assessed as inhibition of parasitemia; type: functional, organism-based, Red blood cell; details: Erythrocyte
Plasmodium berghei [22] = test: In vivo antimalarial activity against Plasmodium berghei ANKA strain infected in C57BL/6 mouse assessed as increase in mean survival time at 50 mg/kg, ip administered for 4 days and measured upto 30 days (reference value: 13 days); type: functional; details: time <= 30 day
[23] = Toxicity in C57BL/6 mouse assessed as effect on indirect bilirubin level at 400 mg/kg, ip measured upto 24 hrs (reference value: 0.22 mg/dl); type: organism-based; details: in vivo
[24] = Toxicity in C57BL/6 mouse assessed as effect on total bilirubin level at 400 mg/kg, ip measured upto 24 hrs (reference value: 0.39 mg/dl); type: organism-based; details: in vivo
Plasmodium berghei [25] = test: In vivo antimalarial activity against Plasmodium berghei ANKA infected in C57BL/6 mouse assessed as reduction in parasitemia at 50 mg/kg, ip administered for 4 days and measured at day 8 post-infection in the presence of artesunate by giemsa staining based microscopic analysis relative to control; type: functional; parameters: scale not given: the % may be the effect or the level left; details: time 8 day
[26] = Toxicity in C57BL/6 mouse assessed as effect on feeding at 100 to 400 mg/kg, ip measured upto 24 hrs; type: organism-based; details: in vivo, dose 100-400 mg/kg
Plasmodium falciparum [27] = test: Antiplasmodial activity against Plasmodium falciparum 3D7 infected in human red blood cells assessed as inhibition of parasitemia incubated for 48 hrs by giemsa staining based light microscopic analysis; type: functional, organism-based, Red blood cell; details: 3D7, Erythrocyte
Plasmodium berghei [28] = test: In vivo antimalarial activity against Plasmodium berghei ANKA infected in C57BL/6 mouse assessed as reduction in parasitemia at 50 mg/kg, ip administered for 4 consecutive days and measured on day 8 post-infection by giemsa staining based microscopic analysis relative to control; type: functional; parameters: scale not given: the % may be the effect or the level left; details: time 8 day
Plasmodium berghei [29] = test: In vivo antimalarial activity against Plasmodium berghei ANKA strain infected in C57BL/6 mouse assessed as increase in mean survival time at 50 mg/kg, ip administered for 4 days and measured upto 30 days in the presence of artesunate (reference value: 13 days); type: functional; details: time <= 30 day
[30] = Toxicity in C57BL/6 mouse assessed as effect on kidney structure at 400 mg/kg, ip measured upto 24 hrs by H&E staining based histopathological analysis; type: organism-based; details: in vivo
[31] = Toxicity in C57BL/6 mouse assessed as effect on body weight at 100 to 400 mg/kg, ip measured upto 24 hrs; type: organism-based; details: in vivo, dose 100-400 mg/kg
[32] = Toxicity in C57BL/6 mouse assessed as effect on motor activity at 100 to 400 mg/kg, ip measured upto 24 hrs; type: organism-based; details: in vivo, dose 100-400 mg/kg
[33] = Toxicity in C57BL/6 mouse assessed as effect on urea level at 400 mg/kg, ip measured upto 24 hrs (reference value: 44.50 mg/dl); type: organism-based; details: in vivo
Plasmodium berghei [34] = test: Antiplasmodial activity against Plasmodium berghei isolated from parasite-infected mouse blood assessed as reduction in number of healthy parasites in compound treated ookinete medium co-cultured with mouse blood at 0.05 to 0.45 uM by giemsa staining based analysis; type: functional, organism-based; details: dose 0.05-0.45 µM
Plasmodium berghei [35] = test: Antimalarial activity against Plasmodium berghei assessed as reduction in oocyte burden in Anopheles stephensi mosquito midgut fed with blood isolated from compound treated parasite-infected Balb/c mouse at 200 mg/kg administered on day 1 and day 9 relative to control; type: functional; parameters: scale not given: the % may be the effect or the level left; details: time 9 day
Plasmodium berghei [36] = test: Antimalarial activity against Plasmodium berghei infected in Balb/c mouse assessed as parasite killing at 200 mg/kg administered on day 1 and day 9 relative to control; type: functional; details: time 9 day
[37] = Toxicity in C57BL/6 mouse assessed as effect on total protein level at 400 mg/kg, ip measured upto 24 hrs (reference value: 6.29 gm/dl); type: organism-based; details: in vivo

SMILES: O=C(N[C@@H](Cc1ccccc1)[C@@H](O)CN1CCN(Cc2ccccc2)CC1)c1ccc2ccccc2c1
- Drug recovery [1]: > 87.3%
- Ratio IC50 (Plasmodium falciparum [2]): 0.72
- Activity [3]: 0.11 mg/dL
- Activity (Plasmodium berghei [4]): Active
- IC50 (Plasmodium berghei [5]): 1560 nM
- Activity [6]: Non-Toxic
- inhibition (Plasmodium falciparum [7]): 17.7%
- Activity (Erythrocyte): Non-Toxic
- Activity (Plasmodium berghei [8]): Active
- Activity [9]: 2.68 g/dL
- selectivity ratio [10]: 1560
- Activity (Plasmodium berghei [11]): Active
- Activity [12]: 22.45 U/L
- Activity [13]: 0.77 mg/dL
- Activity [14]: 41.9 U/L
- Activity [15]: Non-Toxic
- Activity [16]: 2.49 mg/dL
- CC50 at 48 h [17]: 234000 nM
- Activity [18]: 123.1 U/L
- Activity [19]: 4.14 g/dL
- Activity [20]: 9.24 mg/dL
- IC50 (Plasmodium falciparum [21]): 110 nM
- MST (Plasmodium berghei [22]): 17 days
- Activity [23]: 0.17 mg/dL
- Activity [24]: 0.28 mg/dL
- Activity (Plasmodium berghei [25]): 99%
- Activity [26]: Non-Toxic
- IC50 (Plasmodium falciparum [27]): 150 nM
- Activity (Plasmodium berghei [28]): 75%
- MST (Plasmodium berghei [29]): 27 days
- Activity [30]: Non-Toxic
- Activity [31]: Non-Toxic
- Activity [32]: Non-Toxic
- Activity [33]: 49.03 mg/dL
- Activity (Plasmodium berghei [34]): Active
- Activity (Plasmodium berghei [35]): 80%
- Activity (Plasmodium berghei [36]): 100%
- Activity [37]: 6.82 g/dL
